Source: patent US20060069132A1, “Azolecarboxamide herbicides” (priority 2004, published 2006)

Experiments:
lambsquarters = experiment: Test B pre-/postemergence herbicide test; format: in vivo, Chenopodium album
Outline: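 Herbicidal effect was judged by eye on a 0–100 scale after plants stood 13 to 15 days in the greenhouse following pre- or postemergence treatment with surfactant-containing formulations.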

barnyardgrass = experiment: Test B flooded paddy test; format: in vivo, Echinochloa crus-galli; details: 1000 g ai/ha, scale 0 to 100 (0 no effect, 100 complete control)
Outline: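 Visual control ratings, 0–100 versus untreated controls, taken after 13 to 15 days in the greenhouse. Blackgrass received a postemergence spray at the 1- to 4-leaf stage (2–18 cm); ducksalad, umbrella sedge and barnyardgrass were flooded-paddy treated at 2 leaves.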

Surinam grass = experiment: Test C pre-/postemergence herbicide test; format: in vivo, Urochloa decumbens; details: preemergence
Excerpt: (§1) Seeds of plant species selected from bermudagrass (Cynodon dactylon (L.) Pers.), Surinam grass (Urochloa decumbens (Staph) R. D. Webster, previously named Brachiaria decumbens Stapf), cocklebur (Xanthium strumarium L.), corn (Zea mays L.), large crabgrass (Digitaria sanguinalis (L.) Scop.), woolly cupgrass (Eriochloa villosa (Thunb.) Kunth), giant foxtail (Setaria faberi Herrm.), goosegrass (Eleusine indica (L.) Gaertn.), johnsongrass (Sorghum halepense (L.) Pers.), kochia (Kochia scoparia (L.) Schrad.), lambsquarters (Chenopodium album L.), morningglory (Ipomoea coccinea L.), eastern black nightshade (Solanum ptycanthum Dunal), yellow nutsedge (Cyperus esculentus L.), pigweed (Amaranthus retroflexus L.), common ragweed (Ambrosia elatior L.), soybean (Glycine max (L.) Merr.), common (oilseed) sunflower (Helianthus annuus L.) and velvetleaf (Abutilon theophrasti Medik.) were planted and treated preemergence with test chemicals formulated in a non-phytotoxic solvent mixture which included a surfactant.
(§2) At the same time, plants selected from these crop and weed species and also winter barley (Hordeum vulgare L.), blackgrass (Alopecurus myosuroides Huds.), canarygrass (Phalaris minor Retz.), chickweed (Stellaria media (L.) Vill.), downy bromegrass (Bromus tectorum L.), green foxtail (Setaria viridis (L.) Beauv.), Italian ryegrass (Lolium multiflorum Lam.), wheat (Triticum aestivum L.), wild oat (Avenafatua L.) and windgrass (Apera spica-venti (L.) Beauv.) were treated with postemergence applications of some of the test chemicals formulated in the same manner. Plants ranged in height from 2 to 18 cm (1- to 4-leaf stage) for postemergence treatments. Plant species in the flooded paddy test consisted of rice (Oryza sativa), smallflower umbrella sedge (Cyperus difformis L.), ducksalad (Heteranthera limosa (Sw.) Willd.) and barnyardgrass (Echinochloa crus-galli (L.) Beauv.) grown to the 2-leaf stage for testing. Treated plants and controls were maintained in a greenhouse for 12 to 14 days, after which time all species were compared to controls and visually evaluated. Plant response ratings, summarized in Table C, are based on a scale of 0 to 100 where 0 is no effect and 100 is complete control. A dash (-) response means no test result.

goosegrass = experiment: Test C pre-/postemergence herbicide test; format: in vivo, Eleusine indica; details: preemergence; for Plant response rating (0 = no effect, 100 = complete control), Goosegrass: 125 g ai/ha
Excerpt: as §1, §2

pigweed = experiment: Test C pre-/postemergence herbicide test; format: in vivo, Amaranthus retroflexus; details: preemergence; for Plant response rating (0 = no effect, 100 = complete control), Pigweed: 125 g ai/ha
Excerpt: as §1, §2

soybean = experiment: Test C pre-/postemergence herbicide test; format: in vivo, Glycine max; details: preemergence; for Plant response rating (0 = no effect, 100 = complete control), Soybean: 125 g ai/ha
Excerpt: as §1, §2

giant foxtail = experiment: Test A pre-/postemergence herbicide test; format: in vivo, Setaria faberi
Outline: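 Visual injury scores on a 0–100 scale (100 = complete control) taken about ten days post-treatment in greenhouse against untreated controls; dash means no result. Treatments: preemergence soil spray and postemergence spray to runoff on one- to two-leaf plants 2 to 10 cm tall, surfactant-containing formulation.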

rice = experiment: Test C flooded paddy test; format: in vivo, Oryza sativa; details: for Plant response rating, Rice: 500 g ai/ha, visual rating after 12 to 14 days
Outline: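 Injury scored visually against controls on a 0 (no effect) to 100 (complete control) scale, 12 to 14 days after treatment in greenhouse. Flooded paddy plants treated at 2-leaf stage; postemergence plants at 1- to 4-leaf stage, 2 to 18 cm tall.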

[1] = 125 g ai/ha, 0 is no effect, 100 is complete control, preemergence
[2] = Postemergence, 500 g ai/ha, scale 0 (no effect) to 100 (complete control)
[3] = postemergence, 125 g ai/ha, scale 0 to 100
[4] = 500 g ai/ha, scale 0 to 100 (0 no effect, 100 complete control), visual, 12 to 14 days
[5] = Postemergence, 500 g ai/ha, 0 to 100 scale, 0 no effect, 100 complete control
[6] = Preemergence, 500 g ai/ha, visual rating, 0 to 100 scale (0 no effect, 100 complete control)
[7] = postemergence, 125 g ai/ha, visual rating, scale 0 (no effect) to 100 (complete control)
[8] = preemergence, 125 g ai/ha, 0 to 100 scale, 0 is no effect, 100 is complete control
[9] = 62 g ai/ha, scale 0 to 100 (0 no effect, 100 complete control)
[10] = 250 g ai/ha, scale of 0 to 100, 0 is no effect, 100 is complete control
[11] = scale 0 to 100 (0 no effect, 100 complete control)
[12] = Postemergence, 2000 g ai/ha, 0 to 100 scale, 0 no effect, 100 complete control
[13] = Preemergence, 2000 g ai/ha, visual rating, 0 to 100 scale (0 no effect, 100 complete control)
[14] = preemergence, 500 g ai/ha, visual injury, 0 to 100 scale (0 no effect, 100 complete control)
[15] = 125 g ai/ha, 0 = no effect, 100 = complete control, preemergence
[16] = 500 g ai/ha, visual rating, 0 = no effect, 100 = complete control, preemergence
[17] = postemergence, 500 g ai/ha, visual rating, scale 0 (no effect) to 100 (complete control)
[18] = 125 g ai/ha, scale 0 to 100 (0 no effect, 100 complete control)

CCNC(=S)c1cccc(NC(=O)c2nn(C(C)(C)C)nc2C)c1 [Compound 420]
Plant response rating (0 to 100 scale), Lambsquarters (lambsquarters; [1]): 100 | Lambsquarters plant response rating (lambsquarters; [2]): 90 | Lambsquarters plant response rating (lambsquarters; [3]): 70 | Barnyardgrass plant response rating (barnyardgrass): 90 | Plant response rating, Surinam Grass (Surinam grass; 62 g ai/ha, scale 0 to 100): 10 | Plant response rating (0 = no effect, 100 = complete control), Surinam Grass (Surinam grass; 125 g ai/ha): 20 | Plant response rating, Surinam Grass (Surinam grass; [4]): 95 | Plant response rating, Goosegrass (goosegrass; 62 g ai/ha, scale 0 to 100): 95 | Plant response rating (0 = no effect, 100 = complete control), Goosegrass (goosegrass): 95 | Plant response rating, Goosegrass (goosegrass; 250 g ai/ha, scale 0-100): 100 | Plant response rating, Goosegrass (goosegrass; [4]): 100 | Plant response rating, Pigweed (pigweed; 62 g ai/ha, scale 0 to 100): 100 | Plant response rating (0 = no effect, 100 = complete control), Pigweed (pigweed): 100 | Plant response rating, Pigweed (pigweed; [4]): 100 | Plant response rating, Soybean (soybean; 62 g ai/ha, scale 0 to 100): 0 | Plant response rating (0 = no effect, 100 = complete control), Soybean (soybean): 10 | Plant response rating, Soybean (soybean; [4]): 85

CCn1nc(C(C)(C)C)cc1C(=O)Nc1cccc(C(=O)NC(C)C)c1 [Compound 51]
Foxtail, Giant plant response rating (giant foxtail; Postemergence, 125 g ai/ha, 0 to 100 scale, 0 no effect, 100 complete control): 20 | Plant response rating, Foxtail, Giant (giant foxtail; [5]): 40 | Foxtail, Giant plant response rating (giant foxtail; [6]): 100 | Foxtail, Giant plant response rating (giant foxtail; preemergence, 125 g ai/ha, visual injury, 0 to 100 scale (0 no effect, 100 complete control)): 70 | Plant response rating, Lambsquarters (lambsquarters; Postemergence, 500 g ai/ha, visual rating after 13 to 15 days, scale 0 (no effect) to 100 (complete control)): 90 | Lambsquarters plant response rating (lambsquarters; Preemergence, 500 g ai/ha, scale 0 to 100): 100 | Lambsquarters plant response rating (lambsquarters; [7]): 80 | Plant response rating, Lambsquarters (lambsquarters; [8]): 100 | Barnyardgrass plant response rating (barnyardgrass; visual rating, 13 to 15 days): 90 | Rice plant response rating (rice; [9]): 0 | Rice plant response rating (rice; 125 g ai/ha, scale of 0 to 100, 0 is no effect, 100 is complete control): 0 | Rice plant response rating (rice; [10]): 15 | Plant response rating, Rice (rice; [11]): 50

CCc1nc(C(C)(C)C)sc1C(=O)Nc1cccc(C(=O)NC(C)(C)C)n1 [Compound 216]
Foxtail, Giant plant response rating (giant foxtail; [5]): 20 | Plant response rating, Foxtail, Giant (giant foxtail; [12]): 20 | Foxtail, Giant plant response rating (giant foxtail; [13]): 70 | Foxtail, Giant plant response rating (giant foxtail; [14]): 25 | Lambsquarters plant response rating (0 to 100 scale) (lambsquarters; [15]): 90 | Plant response rating, Lambsquarters (lambsquarters; [16]): 100 | Lambsquarters plant response rating (lambsquarters; [7]): 0 | Lambsquarters plant response rating (lambsquarters; [17]): 0 | Barnyardgrass plant response rating (barnyardgrass; visual rating, 13 to 15 days): 20 | Rice plant response rating (rice; [9]): 0 | Rice plant response rating (rice; [18]): 0 | Rice plant response rating (rice; [10]): 0 | Plant response rating, Rice (rice; [11]): 30

CCc1nn(C(C)C)nc1C(=O)Nc1cccc(C(=O)N2CCCCC2)c1 [Compound 385]
Plant response rating (0 to 100 scale), Lambsquarters (lambsquarters; [1]): 90 | Lambsquarters plant response rating (lambsquarters; 125 g ai/ha, visual rating, scale 0 (no effect) to 100 (complete control), postemergence): 50 | Lambsquarters plant response rating (lambsquarters; [2]): 60 | Barnyardgrass plant response rating (barnyardgrass): 80 | Plant response rating, Goosegrass (goosegrass; 62 g ai/ha, scale 0 to 100): 70 | Plant response rating (0 = no effect, 100 = complete control), Goosegrass (goosegrass): 80 | Plant response rating, Goosegrass (goosegrass; 250 g ai/ha, scale 0-100): 95 | Plant response rating, Goosegrass (goosegrass; [4]): 100 | Plant response rating, Pigweed (pigweed; 62 g ai/ha, scale 0 to 100): 80 | Plant response rating (0 = no effect, 100 = complete control), Pigweed (pigweed): 100 | Plant response rating, Pigweed (pigweed; 250 g ai/ha, scale 0-100): 100 | Plant response rating, Pigweed (pigweed; [4]): 100 | Plant response rating, Soybean (soybean; 62 g ai/ha, scale 0 to 100): 25 | Plant response rating (0 = no effect, 100 = complete control), Soybean (soybean): 100 | Plant response rating, Soybean (soybean; 250 g ai/ha, scale 0-100): 100 | Plant response rating, Soybean (soybean; [4]): 100 | Rice plant response rating (rice; 62 g ai/ha, scale 0 to 100): 40 | Rice plant response rating (rice; [18]): 50 | Rice plant response rating (rice; [10]): 65 | Plant response rating, Rice (rice; [11]): 80

CCOc1cccc(NC(=O)c2cc(C(C)(C)C)nn2CC)c1 [Compound 136]
Foxtail, Giant plant response rating (giant foxtail; [5]): 25 | Plant response rating, Foxtail, Giant (giant foxtail; [12]): 50 | Foxtail, Giant plant response rating (giant foxtail; [6]): 60 | Foxtail, Giant plant response rating (giant foxtail; [13]): 70 | Plant response rating, Lambsquarters (lambsquarters; 500 g ai/ha, visual rating 0-100, 0 no effect, 100 complete control, preemergence): 100 | Lambsquarters plant response rating (lambsquarters; [7]): 100 | Lambsquarters plant response rating (lambsquarters; [17]): 100 | Plant response rating, Lambsquarters (lambsquarters; [8]): 100 | Barnyardgrass plant response rating (barnyardgrass; visual rating, 13 to 15 days): 60 | Rice plant response rating (rice; [9]): 30 | Rice plant response rating (rice; [18]): 35 | Rice plant response rating (rice; [10]): 50 | Plant response rating, Rice (rice; [11]): 70

CCN(C(C)=O)C(=O)c1ccc(F)c(NC(=O)c2cc(C(C)(C)C)nn2CC)c1 [Compound 413]
Foxtail, Giant plant response rating (giant foxtail; [5]): 10 | Plant response rating, Foxtail, Giant (giant foxtail; [12]): 35 | Foxtail, Giant plant response rating (giant foxtail; [13]): 90 | Foxtail, Giant plant response rating (giant foxtail; [14]): 65 | Lambsquarters plant response rating (lambsquarters; [2]): 90 | Lambsquarters plant response rating (lambsquarters; [3]): 70 | Barnyardgrass plant response rating (barnyardgrass): 60 | Rice plant response rating (rice; 62 g ai/ha, scale 0 to 100): 35 | Rice plant response rating (rice; [18]): 45 | Rice plant response rating (rice; [10]): 55 | Plant response rating, Rice (rice; [11]): 70

CCNC(=O)c1ccc(F)c(NC(=O)c2cc(C(C)(C)C)nn2CC)n1 [Compound 278]
Foxtail, Giant plant response rating (giant foxtail; [5]): 5 | Plant response rating, Foxtail, Giant (giant foxtail; [12]): 15 | Foxtail, Giant plant response rating (giant foxtail; [13]): 85 | Foxtail, Giant plant response rating (giant foxtail; [14]): 60 | Lambsquarters plant response rating (0 to 100 scale) (lambsquarters; [15]): 100 | Plant response rating, Lambsquarters (lambsquarters; [16]): 100 | Lambsquarters plant response rating (lambsquarters; [7]): 20 | Lambsquarters plant response rating (lambsquarters; postemergence, 500 g ai/ha, scale 0 to 100, 0 is no effect, 100 is complete control): 30 | Barnyardgrass plant response rating (barnyardgrass): 60 | Rice plant response rating (rice; 62 g ai/ha, scale 0 to 100): 0 | Rice plant response rating (rice; [18]): 0 | Rice plant response rating (rice; [10]): 15 | Plant response rating, Rice (rice; [11]): 30
